# Assay results as given in patent US9133115B2 (ACHILLION PHARMACEUTICALS, INC., priority 2008, dated 2015).
# Tested on: HCV replicon
# Test: HCV replicon replication assay (NPT ELISA) in Huh-7 replicon-containing cells
# Type: cell-based
# Details: Hepatitis C virus, 72 h; HCV replicon in Huh-7 cells, three days incubation; read-out: EC50
# Summary of the method: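 Huh-7 cells carrying a bicistronic HCV replicon (HCV-IRES-neo, EMCV-IRES-driven NS3–NS5B, 3′-NTR) were seeded at 6000-7500 cells/well, grown 24 h to 60-70% confluence, then treated with graded compound concentrations. Replication was read as NPT level by capture ELISA (rabbit anti-NPTII, Eu-N1 secondary); interferon alpha served as positive control.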
row,SMILES,EC50
1,"C=C[C@@H]1C[C@]1(NC(=O)[C@@H]1C[C@@H](Oc2cc(-c3ccccc3)nc3cc(OC)ccc23)CN1C(=O)[C@@H](CC(=O)N1CC(F)(F)C1)C(C)(C)C)C(=O)NS(=O)(=O)C1CC1 [Compound 223, (2S,4R)-1-((S)-2-tert-butyl-4-(3,3-difluoroazetidin-1-yl)-4-oxobutanoyl)-N-((1R)-1-(cyclopropyl-sulfonylcarbamoyl)-2-vinylcyclopropyl)-4-(7-methoxy-2-phenylquinolin-4-yloxy)pyrrolidine-2-carboxamide]",< 1 µM
2,"C=C[C@@H]1C[C@]1(NC(=O)[C@@H]1C[C@@H](Oc2cc(-c3ccccc3)nc3cc(OC)ccc23)CN1C(=O)[C@@H](CC(=O)N1CC(Cl)C1)C(C)(C)C)C(=O)NS(=O)(=O)C1CC1 [Compound 224, (2S,4R)-1-((S)-2-tert-butyl-4-(3-chloroazetidin-1-yl)-4-oxobutanoyl)-N-((1R)-1-(cyclopropyl-sulfonylcarbamoyl)-2-vinylcyclopropyl)-4-(7-methoxy-2-phenylquinolin-4-yloxy)pyrrolidine-2-carboxamide]",< 1 µM
3,"C=C[C@@H]1C[C@]1(NC(=O)[C@@H]1C[C@@H](Oc2cc(-c3ccccc3)nc3ccccc23)CN1C(=O)[C@@H](CC(=O)N1CCCCC1)C(C)(C)C)C(=O)NS(=O)(=O)C1CC1 [Compound 225, (2S,4R)-1-((S)-2-tert-butyl-4-oxo-4-(piperidin-1-yl)butanoyl)-N-((1R)-1-(cyclopropyl-sulfonylcarbamoyl)-2-vinylcyclopropyl)-4-(2-phenylquinolin-4-yloxy)pyrrolidine-2-carboxamide]",< 1 µM
4,"C=C[C@@H]1C[C@]1(NC(=O)[C@@H]1C[C@@H](Oc2cc(-c3ccccc3)nc3ccc(C)cc23)CN1C(=O)[C@@H](CC(=O)N1CCCCC1)C(C)(C)C)C(=O)NS(=O)(=O)C1CC1 [Compound 226, (2S,4R)-1-((S)-2-tert-butyl-4-oxo-4-(piperidin-1-yl)butanoyl)-N-((1R)-1-(cyclopropyl-sulfonylcarbamoyl)-2-vinylcyclopropyl)-4-(6-methyl-2-phenylquinolin-4-yloxy)pyrrolidine-2-carboxamide]",< 1 µM
5,"C=C[C@@H]1C[C@]1(NC(=O)[C@@H]1C[C@@H](Oc2cc(-c3ccccc3)nc3cc(OC)ccc23)CN1C(=O)[C@@H](CC(=O)N1CCC1c1ccccc1)C(C)(C)C)C(=O)NS(=O)(=O)C1CC1 (stereo partly drawn) [Compound 227, (2S,4R)-1-((2S)-2-tert-butyl-4-oxo-4-(2-phenylazetidin-1-yl)butanoyl)-N-((1R)-1-(cyclopropyl-sulfonylcarbamoyl)-2-vinylcyclopropyl)-4-(7-methoxy-2-phenylquinolin-4-yloxy)pyrrolidine-2-carboxamide]",< 1 µM
6,"C=C[C@@H]1C[C@]1(NC(=O)[C@@H]1C[C@@H](Oc2cc(-c3ccccc3)nc3cc(OC)ccc23)CN1C(=O)[C@@H](CC(=O)N1CCC1c1cccc(OC)c1)C(C)(C)C)C(=O)NS(=O)(=O)C1CC1 (stereo partly drawn) [Compound 228, (2S,4R)-1-((2S)-2-tert-butyl-4-(2-(3-methoxyphenyl)aze-tidin-1-yl)-4-oxobutanoyl)-N-((1R)-1-(cyclopropyl-sulfonylcarbamoyl)-2-vinylcyclopropyl)-4-(7-methoxy-2-phenylquinolin-4-yloxy)pyrrolidine-2-carboxamide]",< 1 µM
7,"C=C[C@@H]1C[C@]1(NC(=O)[C@@H]1C[C@@H](Oc2cc(-c3ccccc3)nc3ccc(OC)cc23)CN1C(=O)[C@@H](CC(=O)N1CCCCC1)C(C)(C)C)C(=O)NS(=O)(=O)C1CC1 [Compound 229, (2S,4R)-1-((S)-2-tert-butyl-4-oxo-4-(piperidin-1-yl)butanoyl)-N-((1R)-1-(cyclopropyl-sulfonylcarbamoyl)-2-vinylcyclopropyl)-4-(6-methoxy-2-phenylquinolin-4-yloxy)pyrrolidine-2-carboxamide]",< 1 µM
8,"C=C[C@@H]1C[C@]1(NC(=O)[C@@H]1C[C@@H](Oc2cc(-c3nc(C(C)C)cs3)nc3cc(OC)ccc23)CN1C(=O)[C@@H](CC(=O)N1CCCCC1)C(C)(C)C)C(=O)NS(=O)(=O)C1CC1 [Compound 230, (2S,4R)-1-((S)-2-tert-butyl-4-oxo-4-(piperidin-1-yl)butanoyl)-N-((1R)-1-(cyclopropyl-sulfonylcarbamoyl)-2-vinylcyclopropyl)-4-(2-(4-isopropylthiazol-2-yl)-7-methoxyquinolin-4-yloxy)pyrrolidine-2-carboxamide]",< 1 µM
9,"C=C[C@@H]1C[C@]1(NC(=O)[C@@H]1C[C@@H](Oc2cc(-c3ccccc3)nc3c(OC)cccc23)CN1C(=O)[C@@H](CC(=O)N1CCCCC1)C(C)(C)C)C(=O)NS(=O)(=O)C1CC1 [Compound 231, (2S,4R)-1-((S)-2-tert-butyl-4-oxo-4-(piperidin-1-yl)butanoyl)-N-((2S)-1-(cyclopropyl-sulfonylcarbamoyl)-2-vinylcyclopropyl)-4-(8-methoxy-2-phenylquinolin-4-yloxy)pyrrolidine-2-carboxamide]",< 1 µM
10,"C=C[C@@H]1C[C@]1(NC(=O)[C@@H]1C[C@@H](Oc2cc(-c3ccccc3)nc3cc(OC)ccc23)CN1C(=O)[C@@H](CC(=O)N1CCCCC1c1cc(-c2ccccc2)[nH]n1)C(C)(C)C)C(=O)NS(=O)(=O)C1CC1 (stereo partly drawn) [Compound 232, (2S,4R)-1-((2S)-2-tert-butyl-4-oxo-4-(2-(5-phenyl-1H-pyrazol-3-yl)piperidin-1-yl)butanoyl)-N-((2S)-1-(cyclopropyl-sulfonylcarbamoyl)-2-vinylcyclopropyl)-4-(7-methoxy-2-phenylquinolin-4-yloxy)pyrrolidine-2-carboxamide]",< 1 µM
11,"C=C[C@@H]1C[C@]1(NC(=O)[C@@H]1C[C@@H](Oc2cc(-c3ccccc3)cc3cc(OC)ccc23)CN1C(=O)[C@@H](CC(=O)N1CCCCC1)C(C)(C)C)C(=O)NS(=O)(=O)C1CC1 [Compound 233, (2S,4R)-1-((S)-2-tert-butyl-4-oxo-4-(piperidin-1-yl)butanoyl)-N-((1R)-1-(cyclopropyl-sulfonylcarbamoyl)-2-vinylcyclopropyl)-4-(6-methoxy-3-phenylnaphthalen-1-yloxy)pyrrolidine-2-carboxamide]",< 1 µM
12,"C=C[C@@H]1C[C@]1(NC(=O)[C@@H]1C[C@@H](Oc2cc(-c3ccccc3)nc3c4c(ccc23)CCC4)CN1C(=O)[C@@H](CC(=O)N1CCCCC1)C(C)(C)C)C(=O)NS(=O)(=O)C1CC1 [Compound 235, (2S,4R)-l-((S)-2-tert-butyl-4-oxo-4-(piperidin-l-yl)butanoyl)-N-((2S)-l-(cyclopropyl-sulfonylcarbamoyl)-2-vinylcyclopropyl)-4-(2-phenyl-8,9-dihydro-7H-cyclo-penta[h]quinolin-4-yloxy)pyrrolidine-2-carboxamide]",< 1 µM
13,"C=C[C@@H]1C[C@]1(NC(=O)[C@@H]1C[C@@H](Oc2cc(-c3ccccn3)nc3c4c(ccc23)CCC4)CN1C(=O)[C@@H](CC(=O)N1CCCC(F)(F)C1)C(C)(C)C)C(=O)NS(=O)(=O)C1CC1 [Compound 236, (2S,4R)-1-((S)-2-tert-butyl-4-(3,3-difluoropiperidin-1-yl)-4-oxobutanoyl)-N-((2S)-1-(cyclopropyl-sulfonylcarbamoyl)-2-vinylcyclopropyl)-4-(2-(pyridin-2-yl)-8,9-dihydro-7H-cyclopenta[h]quino-lin-4-yloxy)pyrrolidine-2-carboxamide]",< 1 µM
14,"C=C[C@@H]1C[C@]1(NC(=O)[C@@H]1C[C@@H](Oc2cc(-c3ccccn3)nc3c4c(ccc23)CCC4)CN1C(=O)[C@@H](CC(=O)N1CCC(C(F)(F)F)CC1)C(C)(C)C)C(=O)NS(=O)(=O)C1CC1 [Compound 237, (2S,4R)-1-((S)-2-tert-butyl-4-oxo-4-(4-(trifluoro-methyl)piperidin-1-yl)butanoyl)-N-((2S)-1-(cyclopropyl-sulfonylcarbamoyl)-2-vinylcyclopropyl)-4-(2-(pyridin-2-yl)-8,9-dihydro-7H-cyclopenta[h]quino-lin-4-yloxy)pyrrolidine-2-carboxamide]",< 1 µM
15,"C=C[C@@H]1C[C@]1(NC(=O)[C@@H]1C[C@@H](Oc2cc(-c3csc(NC(C)C)n3)nc3c(C)c(OC)ccc23)CN1C(=O)[C@@H](CC(=O)N1CCC(C(F)(F)F)CC1)C(C)(C)C)C(=O)NS(=O)(=O)C1CC1 [Compound 238, (2S,4R)-1-((S)-2-tert-butyl-4-oxo-4-(4-(trifluoro-methyl)piperidin-1-yl)butanoyl)-N-((2S)-1-(cyclopropyl-sulfonylcarbamoyl)-2-vinylcyclopropyl)-4-(2-(2-(isopropyl-amino)thiazol-4-yl)-7-methoxy-8-methylquinolin-4-yloxy)pyrrolidine-2-carboxamide]",< 1 µM
16,C=C[C@@H]1C[C@]1(NC(=O)[C@@H]1C[C@@H](Oc2cc(-c3ccccc3)nc3c(C)c(OC)ccc23)CN1C(=O)[C@@H](CC(=O)N1CCCCC1)C(C)(C)C)C(=O)NS(=O)(=O)C1CC1 [Compound 239],< 1 µM
17,"C=C[C@@H]1C[C@]1(NC(=O)[C@@H]1C[C@@H](Oc2cc(-c3ccccc3)nc3c(C)c(OC)ccc23)CN1C(=O)[C@@H](CC(=O)N1CCC(C(F)(F)F)CC1)C(C)(C)C)C(=O)NS(=O)(=O)C1CC1 [Compound 240, (2S,4R)-1-((S)-2-tert-butyl-4-oxo-4-(4-(trifluoro-methyl)piperidin-1-yl)butanoyl)-N-((1R)-1-(cyclopropyl-sulfonylcarbamoyl)-2-vinylcyclopropyl)-4-(7-methoxy-8-methyl-2-phenylquinolin-4-yloxy)pyrrolidine-2-carboxamide]",< 1 µM
18,"C=C[C@@H]1C[C@]1(NC(=O)[C@@H]1C[C@@H](Oc2cc(-c3ccccc3)nc3c(C)c(OC)ccc23)CN1C(=O)[C@@H](CC(=O)N1CCCC(F)(F)C1)C(C)(C)C)C(=O)NS(=O)(=O)C1CC1 [Compound 241, (2S,4R)-1-((S)-2-tert-butyl-4-(3,3-difluoropiperidin-1-yl)-4-oxobutanoyl)-N-((2S)-1-(cyclopropyl-sulfonylcarbamoyl)-2-vinylcyclopropyl)-4-(7-methoxy-8-methyl-2-phenylquinolin-4-yloxy)pyrrolidine-2-carboxamide]",< 1 µM
